PMC6150173, “Tryptophan-Containing Cyclic Decapeptides with Activity against Plant Pathogenic Bacteria” (Molecules : A Journal of Synthetic Chemistry and Natural …, 2017)
Peptide text beside a SMILES is read from it.

Experiments:
Assay type in all cases: cell-based
[1] = system: erythrocyte suspensions of human blood; assay: Hemolytic activity, hemoglobin release; conditions: human blood erythrocytes 5% v/v, absorbance 540 nm, percentage compared to melittin, three replicates; for Hemolysis (%) at 50 µM: peptide 50 μM (table prints 50 µM); for Hemolysis (%) at 125 µM: peptide 125 μM (table prints 125 µM)
Protocol: The hemolytic activity of the compounds was evaluated at 50 and 125 μM by determining hemoglobin release from erythrocyte suspensions of human blood (5% v/v) (Oxoid) using absorbance at 540 nm, as previously described. Three replicates for each peptide concentration were used.

[2] = system: Xanthomonas axonopodis pv. vesicatoria 2133-2; conditions: Table S1, MIC range
Protocol: (§1) Erwinia amylovora PMV6076 (Institut National de la Recherche Agronomique, Angers, France), Pseudomonas syringae pv. syringae EPS94 (Institut de Tecnologia Agroalimentària, Universitat de Girona, Spain), and Xanthomonas axonopodis pv. vesicatoria 2133-2 (Instituto Valenciano de Investigaciones Agrarias, Valencia, Spain) were used as bacterial strains. They were stored and cultivated as previously described.
(§2) The minimum inhibitory concentration (MIC) was analyzed as previously described at 0.8, 1.6, 3.1, 6.2, 12.5, 25 and 50 μM [20].

[3] = system: Pseudomonas syringae pv. syringae EPS94; assay: Antibacterial activity (MIC), in vitro growth inhibition; conditions: Table S1, MIC range
Protocol: as §1, §2

[4] = system: Erwinia amylovora PMV6076; assay: as above; conditions: Table S1, MIC range
Protocol: as §1, §2

| Structure (SMILES) | Hemolysis (%) at 50 µM [1] | Hemolysis (%) at 125 µM [1] | MIC Xav [2] | MIC Pss [3] | MIC Ea [4] |
| --- | --- | --- | --- | --- | --- |
| CC(C)C[C@@H]1NC(=O)[C@H](CCCCN)NC(=O)[C@H](CCCCN)NC(=O)[C@H](CCCCN)NC(=O)[C@H](CCCCN)NC(=O)[C@H](CCC(N)=O)NC(=O)[C@H](CC(C)C)NC(=O)[C@H](CC(C)C)NC(=O)[C@H](CCCCN)NC(=O)[C@H](Cc2c[nH]c3ccccc23)NC1=O [BPC060W, c(KKKKLWKLLQ)] (cyclo(KKKKLWKLLQ)) | 22% | 29% | 6.2 to 12.5 µM | 3.1 to 6.2 µM | 12.5 to 25 µM |
| CC(C)C[C@@H]1NC(=O)[C@H](CCCCN)NC(=O)[C@H](CCCCN)NC(=O)[C@H](CCCCN)NC(=O)[C@H](CCC(N)=O)NC(=O)[C@H](CC(C)C)NC(=O)[C@H](CC(C)C)NC(=O)[C@H](CCCCN)NC(=O)[C@H](Cc2c[nH]c3ccccc23)NC(=O)[C@H](CCCCN)NC1=O [BPC062W, c(KKKLKWKLLQ)] (cyclo(KKKLKWKLLQ)) | 3% | 4% | 6.2 to 12.5 µM | 3.1 to 6.2 µM | 12.5 to 25 µM |
| CC(C)C[C@@H]1NC(=O)[C@H](CCCCN)NC(=O)[C@H](CCCCN)NC(=O)[C@H](CCC(N)=O)NC(=O)[C@H](CC(C)C)NC(=O)[C@H](CC(C)C)NC(=O)[C@H](CCCCN)NC(=O)[C@H](Cc2c[nH]c3ccccc23)NC(=O)[C@H](CCCCN)NC(=O)[C@H](CCCCN)NC1=O [BPC064W, c(KKLKKWKLLQ)] (cyclo(KKLKKWKLLQ)) | 17% | 25% | 6.2 to 12.5 µM | 3.1 to 6.2 µM | 6.2 to 12.5 µM |
| CC(C)C[C@@H]1NC(=O)[C@H](CCCCN)NC(=O)[C@H](CCC(N)=O)NC(=O)[C@H](CC(C)C)NC(=O)[C@H](CC(C)C)NC(=O)[C@H](CCCCN)NC(=O)[C@H](Cc2c[nH]c3ccccc23)NC(=O)[C@H](CCCCN)NC(=O)[C@H](CCCCN)NC(=O)[C@H](CCCCN)NC1=O [BPC066W, c(KLKKKWKLLQ)] (cyclo(KKKWKLLQKL)) | 33% | 41% | 6.2 to 12.5 µM | 6.2 to 12.5 µM | 6.2 to 12.5 µM |
| CC(C)C[C@@H]1NC(=O)[C@H](CCC(N)=O)NC(=O)[C@H](CC(C)C)NC(=O)[C@H](CC(C)C)NC(=O)[C@H](CCCCN)NC(=O)[C@H](Cc2c[nH]c3ccccc23)NC(=O)[C@H](CCCCN)NC(=O)[C@H](CCCCN)NC(=O)[C@H](CCCCN)NC(=O)[C@H](CCCCN)NC1=O [BPC068W, c(LKKKKWKLLQ)] (cyclo(KKKKWKLLQL)) | 6% | 7% | 1.6 to 3.1 µM | 6.2 to 12.5 µM | 25 to 50 µM |
| CC(C)C[C@@H]1NC(=O)[C@H](CCCCN)NC(=O)[C@H](CC(C)C)NC(=O)[C@H](Cc2c[nH]c3ccccc23)NC(=O)[C@H](CC(C)C)NC(=O)[C@H](CCCCN)NC(=O)[C@H](CCCCN)NC(=O)[C@H](CCCCN)NC(=O)[C@H](CCCCN)NC(=O)[C@H](CCC(N)=O)NC1=O [BPC070W, c(KKKKLWLKLQ)] (cyclo(KKKKLWLKLQ)) | 6% | 9% | 1.6 to 3.1 µM | 6.2 to 12.5 µM | 12.5 to 25 µM |
| CC(C)C[C@@H]1NC(=O)[C@H](CCCCN)NC(=O)[C@H](CC(C)C)NC(=O)[C@H](Cc2c[nH]c3ccccc23)NC(=O)[C@H](CCCCN)NC(=O)[C@H](CC(C)C)NC(=O)[C@H](CCCCN)NC(=O)[C@H](CCCCN)NC(=O)[C@H](CCCCN)NC(=O)[C@H](CCC(N)=O)NC1=O [BPC072W, c(KKKLKWLKLQ)] (cyclo(KKKLKWLKLQ)) | 7% | 9% and below 20% | 1.6 to 3.1 µM | 3.1 to 6.2 µM | 12.5 to 25 µM |
| CC(C)C[C@@H]1NC(=O)[C@H](CCCCN)NC(=O)[C@H](CCCCN)NC(=O)[C@H](CCC(N)=O)NC(=O)[C@H](CC(C)C)NC(=O)[C@H](CCCCN)NC(=O)[C@H](CC(C)C)NC(=O)[C@H](Cc2c[nH]c3ccccc23)NC(=O)[C@H](CCCCN)NC(=O)[C@H](CCCCN)NC1=O [BPC074W, c(KKLKKWLKLQ)] (cyclo(KKLKKWLKLQ)) | 39% | 50% | 1.6 to 3.1 µM | 6.2 to 12.5 µM | 12.5 to 25 µM |
| CC(C)C[C@@H]1NC(=O)[C@H](CCCCN)NC(=O)[C@H](CCC(N)=O)NC(=O)[C@H](CC(C)C)NC(=O)[C@H](CCCCN)NC(=O)[C@H](CC(C)C)NC(=O)[C@H](Cc2c[nH]c3ccccc23)NC(=O)[C@H](CCCCN)NC(=O)[C@H](CCCCN)NC(=O)[C@H](CCCCN)NC1=O [BPC076W, c(KLKKKWLKLQ)] (cyclo(KKKWLKLQKL)) | 15% | 21% | 1.6 to 3.1 µM | 6.2 to 12.5 µM | 6.2 to 12.5 µM |
| CC(C)C[C@@H]1NC(=O)[C@H](CCC(N)=O)NC(=O)[C@H](CC(C)C)NC(=O)[C@H](CCCCN)NC(=O)[C@H](CC(C)C)NC(=O)[C@H](Cc2c[nH]c3ccccc23)NC(=O)[C@H](CCCCN)NC(=O)[C@H](CCCCN)NC(=O)[C@H](CCCCN)NC(=O)[C@H](CCCCN)NC1=O [BPC078W, c(LKKKKWLKLQ)] (cyclo(KKKKWLKLQL)) | 3% | 6% | 0.8 to 1.6 µM | 6.2 to 12.5 µM | 25 to 50 µM |
| CC(C)C[C@@H]1NC(=O)[C@H](CCCCN)NC(=O)[C@H](CCCCN)NC(=O)[C@H](Cc2c[nH]c3ccccc23)NC(=O)[C@H](CC(C)C)NC(=O)[C@H](CC(C)C)NC(=O)[C@H](CCCCN)NC(=O)[C@H](CCCCN)NC(=O)[C@H](CCCCN)NC(=O)[C@H](CCC(N)=O)NC1=O [BPC080W, c(KKKLLWKKLQ)] (cyclo(KKKLLWKKLQ)) | 3% | 4% | 0.8 to 1.6 µM | 6.2 to 12.5 µM | 12.5 to 25 µM |
| CC(C)C[C@@H]1NC(=O)[C@H](CCCCN)NC(=O)[C@H](CCCCN)NC(=O)[C@H](Cc2c[nH]c3ccccc23)NC(=O)[C@H](CCCCN)NC(=O)[C@H](CC(C)C)NC(=O)[C@H](CCCCN)NC(=O)[C@H](CCCCN)NC(=O)[C@H](CCCCN)NC(=O)[C@H](CCC(N)=O)NC1=O [BPC186W, c(KKKLKWKKLQ)] (cyclo(KKKLKWKKLQ)) | 1% | 1% | 6.2 to 12.5 µM | 12.5 to 25 µM |  |
| CC(C)C[C@@H]1NC(=O)[C@H](CCCCN)NC(=O)[C@H](CCCCN)NC(=O)[C@H](Cc2c[nH]c3ccccc23)NC(=O)[C@H](CCCCN)NC(=O)[C@H](CCCCN)NC(=O)[C@H](CC(C)C)NC(=O)[C@H](CC(C)C)NC(=O)[C@H](CC(C)C)NC(=O)[C@H](CCC(N)=O)NC1=O [BPC188W, c(LLLKKWKKLQ)] (cyclo(KKLQLLLKKW)) | 33% | 48% | 12.5 to 25 µM | 6.2 to 12.5 µM |  |
| CC(C)C[C@@H]1NC(=O)[C@H](CCC(N)=O)NC(=O)[C@H](CC(C)C)NC(=O)[C@H](CCCCN)NC(=O)[C@H](CCCCN)NC(=O)[C@H](Cc2c[nH]c3ccccc23)NC(=O)[C@H](CCCCN)NC(=O)[C@H](CCCCN)NC(=O)[C@H](CCCCN)NC(=O)[C@H](CCCCN)NC1=O [BPC190W, c(LKKKKWKKLQ)] (cyclo(KKKKWKKLQL)) | 1% | 3% | 12.5 to 25 µM | 25 to 50 µM |  |
| CC(C)C[C@@H]1NC(=O)[C@H](CCCCN)NC(=O)[C@H](CC(C)C)NC(=O)[C@H](CC(C)C)NC(=O)[C@H](CCC(N)=O)NC(=O)[C@H](CC(C)C)NC(=O)[C@H](CCCCN)NC(=O)[C@H](CCCCN)NC(=O)[C@H](Cc2c[nH]c3ccccc23)NC(=O)[C@H](CCCCN)NC1=O [BPC196W, c(LLKLKWKKLQ)] (cyclo(KKLQLLKLKW)) | 2% | 3% | 1.6 to 3.1 µM | 3.1 to 6.2 µM |  |
| CC(C)C[C@@H]1NC(=O)[C@H](CCCCN)NC(=O)[C@H](CCCCN)NC(=O)[C@H](Cc2c[nH]c3ccccc23)NC(=O)[C@H](CCCCN)NC(=O)[C@H](CC(C)C)NC(=O)[C@H](CC(C)C)NC(=O)[C@H](CC(C)C)NC(=O)[C@H](CC(C)C)NC(=O)[C@H](CCC(N)=O)NC1=O [BPC200W, c(LLLLKWKKLQ)] (cyclo(KKLQLLLLKW)) | 6% | 7% | 3.1 to 6.2 µM | > 50 µM |  |
| CC(C)C[C@@H]1NC(=O)[C@H](CCCCN)NC(=O)[C@H](CCCCN)NC(=O)[C@H](Cc2c[nH]c3ccccc23)NC(=O)[C@H](CCCCN)NC(=O)[C@H](CCCCN)NC(=O)[C@H](CCCCN)NC(=O)[C@H](CCCCN)NC(=O)[C@H](CCCCN)NC(=O)[C@H](CCC(N)=O)NC1=O [BPC202W, c(KKKKKWKKLQ)] (cyclo(KKKKKWKKLQ)) | 0% | 1% | 12.5 to 25 µM | 25 to 50 µM |  |
